Measured values as given in PubChem BioAssay (NCI).
Where “and” joins values, the source holds several entries; their conditions need not be identical. Identical values can stand only once.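 Tested at 5 concentrations; 48 h exposure; 96-well plates; endpoints linearly interpolated, else capped at highest concentration. GI50 is the concentration that inhibits growth by half. The concentration for full growth arrest is given as TGI.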

What was measured:
Experiment in all cases: NCI-60 cell line screen, 48 h
NCI-H522 lung = system: NCI-H522 lung
OVCAR-8 ovarian = system: OVCAR-8 ovarian
SK-MEL-2 melanoma = system: SK-MEL-2 melanoma
SK-OV-3 ovarian = system: SK-OV-3 ovarian
SNB-19 CNS = system: SNB-19 CNS
A549 NSCLC = system: A549 NSCLC
EKVX NSCLC = system: EKVX NSCLC
DU-145 prostate = system: DU-145 prostate
HOP-62 NSCLC = system: HOP-62 NSCLC
HT29 colon = system: HT29 colon

Compound	GI50 (NCI-H522 lung)	TGI (NCI-H522 lung)	GI50 (OVCAR-8 ovarian)	TGI (OVCAR-8 ovarian)	GI50 (SK-MEL-2 melanoma)	TGI (SK-MEL-2 melanoma)	GI50 (SK-OV-3 ovarian) [nM]	TGI (SK-OV-3 ovarian)	GI50 (SNB-19 CNS)	TGI (SNB-19 CNS)	GI50 (A549 NSCLC) [nM]	TGI (A549 NSCLC)	GI50 (EKVX NSCLC) [nM]	TGI (EKVX NSCLC) [µM]	GI50 (DU-145 prostate)	TGI (DU-145 prostate)	GI50 (HOP-62 NSCLC)	TGI (HOP-62 NSCLC)	GI50 (HT29 colon) [nM]	TGI (HT29 colon)
C[As](C)SC1OC(CO)C(O)C1O (centres undefined)	167 nM	0.477 µM	694 nM	3.15 µM	708 nM	2.92 µM	6420	22.4 µM	8680 nM	> 57.6 µM	2250	> 61 µM	877	10.4	0.189 µM	0.799 µM	3580 nM	13.4 µM	668	> 100 µM
CCCCc1c(OC)cc(O)c2c1C(=O)c1[nH]c(C(=O)O)c(O)c(=O)c1C2=O		9.94 µM		28.8 µM		4.3 µM		18.6 µM		15.1 µM		> 100 µM		> 100		> 100 µM		9.29 µM		> 100 µM
O=c1n(CC2CO2)c(=O)n(CC2CO2)c(=O)n1CC1CO1 (centres undefined)	11200 nM and 3900 nM	28 µM and 45.8 µM and 22.9 µM	25300 nM and 12900 nM	148 µM and > 100 µM	36900 nM and 33000 nM	215 µM and > 100 µM	6860	123 µM and > 100 µM	22000 nM and 6550 nM	98.3 µM and > 100 µM	2040	134 µM and > 100 µM		175	11 µM and 3.22 µM	66.2 µM and 127 µM and 37.3 µM	6380 nM and 15100 nM	38.8 µM and 96.1 µM and > 100 µM	24400	62.3 µM and > 100 µM
CC1OC2CC(=O)OC2C2=C1C(=O)c1c(O)cccc1C2=O (centres undefined)	< 16.8 nM	0.0402 µM	50.1 nM	0.36 µM	88.5 nM	0.272 µM	1340	2.67 µM	1080 nM	2.48 µM	831	2.68 µM	407	1.59	0.15 µM	0.284 µM	182 nM	0.366 µM	31.2	0.113 µM
CCC[CH2][Sn]([CH2]CCC)([CH2]CCC)[O]C(=O)CC	149 nM	0.299 µM	205 nM	0.444 µM	186 nM	0.37 µM	143	0.296 µM	169 nM	0.335 µM	172	0.342 µM	121	0.335	0.136 µM	0.271 µM	188 nM	0.414 µM	130	0.322 µM
CCN(CC)CCOc1ccc(/C=C(\C#N)c2ccc(OCCN(CC)CC)cc2)cc1		24.9 µM		42.6 µM		39.9 µM		> 64.2 µM		> 92 µM		44.7 µM		> 80.6		> 100 µM		22.6 µM		8.58 µM
O=C(OCc1ccc2cccc(O)c2n1)N1CCN(C(=O)c2cc3cc(F)ccc3[nH]2)CC1	1020 nM	2.47 µM	1010 nM	2.47 µM	1350 nM	2.78 µM	2770	11.9 µM	1550 nM	2.92 µM	1620	3.35 µM	1400	2.71	1.28 µM	2.67 µM	1370 nM	3.16 µM	1140	3.05 µM
Cc1nnc(S(=O)(=O)c2ccc(N=Nc3c(N)nc(N)nc3N)cc2)s1		> 100 µM		> 100 µM		> 100 µM		> 100 µM		> 100 µM		> 100 µM		> 100		> 100 µM		> 100 µM		> 100 µM
COc1ccc(C(=O)c2cc(OC)c(C)c(OC)c2)cc1OC(=O)CCl	210 nM	14.1 µM	507 nM	> 100 µM	671 nM	66.1 µM	760	> 100 µM	388 nM	> 100 µM	1110	> 100 µM	3600	> 100	0.322 µM	18.2 µM	668 nM	> 100 µM	4210	27.6 µM
Cc1c2cccnc2c(C)c2c1c1cc(CO)ccc1n2C	1980 nM	6.53 µM	1550 nM	18.1 µM	2870 nM	8.47 µM	2140	6.95 µM	2670 nM	14.6 µM	2650	11.7 µM	1400	9.86	3.09 µM	11.9 µM	1310 nM	6.52 µM	1920	10.6 µM
CCOC(=O)/C=C/C(C(=O)/C=C/c1ccc(OC2CCCCO2)c(OC)c1)=C(O)\C=C\c1ccc(OC2CCCCO2)c(OC)c1 (centres undefined)	2220 nM	6.68 µM	2510 nM	6.2 µM	3270 nM	15.2 µM	23100	> 100 µM	5320 nM	25.2 µM	13500	39 µM	10700	> 100	7.01 µM	42.6 µM	6090 nM	32.5 µM	1940	4.51 µM
COc1ccc2c(c1)C(C)Cc1c(Cl)ncnc1N2C (centres undefined)	1410 nM	4.02 µM	463 nM	25.2 µM	405 nM	2.12 µM	504	17.3 µM	732 nM	> 100 µM	432	> 100 µM	440	29.9	3.41 µM	> 74.1 µM	475 nM	20.1 µM	330	8.13 µM
COc1ccc2c(c1)CCC1C2CC[C@@]2(C)C1CC1=CC(COC(C)=O)C3C(=O)c4ccccc4C(=O)C3C12 (some centres undefined)	> 100000 nM	> 100 µM	> 100000 nM	> 100 µM	> 100000 nM	> 100 µM	> 100000	> 100 µM	> 100000 nM	> 100 µM	> 100000	> 100 µM	> 100000	> 100	> 100 µM	> 100 µM	> 100000 nM	> 100 µM	94900	> 100 µM
O=c1c2ccccc2[se]n1-c1cccnc1		55.4 µM		69.5 µM		47.9 µM		> 100 µM		> 100 µM		> 100 µM		> 100		34.6 µM		71 µM		> 100 µM
